According to patent US5185363A, “Urea based lipoxygenase inhibiting compounds” (Abbott Laboratories, priority 1991, dated 1993):

Target: T1, 5-Lipoxygenase from RBL-1 20,000 xg Supernatant (Rattus norvegicus, UniProt P12527)
T1 construct: supermatant from 1.5 million homogenized RBL-1 cells; endogenous in cells; host or cells: RBL-1 cells, 20,000 x g supernatant of homogenate
T1 sequence (P12527 1-673): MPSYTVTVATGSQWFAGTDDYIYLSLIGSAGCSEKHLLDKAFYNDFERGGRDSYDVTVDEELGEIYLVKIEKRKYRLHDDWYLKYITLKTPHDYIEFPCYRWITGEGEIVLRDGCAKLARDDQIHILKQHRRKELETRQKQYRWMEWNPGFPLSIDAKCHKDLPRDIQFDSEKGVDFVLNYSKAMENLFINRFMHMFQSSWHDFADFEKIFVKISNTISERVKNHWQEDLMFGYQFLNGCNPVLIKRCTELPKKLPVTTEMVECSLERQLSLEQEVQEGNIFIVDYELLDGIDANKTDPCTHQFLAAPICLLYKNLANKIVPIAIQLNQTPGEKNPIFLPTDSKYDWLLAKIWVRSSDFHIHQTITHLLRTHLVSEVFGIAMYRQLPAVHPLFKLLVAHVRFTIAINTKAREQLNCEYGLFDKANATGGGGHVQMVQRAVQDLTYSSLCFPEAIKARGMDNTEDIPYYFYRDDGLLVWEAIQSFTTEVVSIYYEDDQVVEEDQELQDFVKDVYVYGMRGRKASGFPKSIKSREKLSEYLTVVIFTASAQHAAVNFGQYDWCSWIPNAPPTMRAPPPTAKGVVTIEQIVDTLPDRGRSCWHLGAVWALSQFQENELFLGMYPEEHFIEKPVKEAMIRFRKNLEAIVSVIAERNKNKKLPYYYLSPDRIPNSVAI
Experiment: In vitro inhibition of 5-lipoxygenase from RBL-1 20,000 xg supernatant
Format: biochemical
Details: radiolabeled arachidonic acid
Method: Assays to determine 5-lipoxygenase inhibitory activity were performed in […] incubations containing the 20,000xg supermatant from 1.5 million homogenized RBL-1 cells and various concentrations of the test compound. Reactions were initiated by addition of radiolabeled arachidonic acid and terminated by acidification and ether extraction. Reaction products were separated from nonconverted substrate by thin layer chromatography and measured by liquid scintillation spectroscopy. All incubations are performed in triplicate. Inhibition of 5-lipoxygenase activity was calculated as the ratio of the amount of product formed in the presence and absence of inhibitor. […] (Dyer, R.D.; Haviv, F.; Hanel, A. M.; Bornemier, D. A.; Carter, G. W. Fed. Proc., Fed. Am. Soc. Exp. Biol. 1984, 43, 1462A).

Compound | IC50
NC(=O)N(O)Cc1ccc(Oc2ccccc2)s1 [Example 155, N-hydroxy-N-[5-(phenoxy)thien-2-yl]methyl urea] | 700 nM
CNC(=O)N(O)C(C)c1ccc(Br)cc1 (centres unmarked) [Example 98, N-Hydroxy-N-1-(4-bromophenyl)ethyl-N'-methyl-urea] | 1100 nM
NC(=O)N(O)Cc1sccc1Sc1ccccc1 [Example 134, N-hydroxy-N-[3-(phenylthio)thien-2-yl]methyl urea] | 300 nM
NC(=O)N(O)Cc1sccc1Oc1ccccc1 [Example 156, N-hydroxy-N-[3-(phenoxy)thien-2-yl]methyl urea] | 1000 nM
CNC(=O)N(O)Cc1ccc(C)s1 [Example 52, N-hydroxy-N-1-(5-methylthien-2-yl)methyl-N'-methyl urea] | 3900 nM
COC(=O)CCCNC(=O)N(O)C(C)c1ccsc1 (centres unmarked) [Example 61] | 2100 nM
CC(C)(C)c1ccc(Sc2ccsc2CN(O)C(N)=O)cc1 [Example 144, N-hydroxy-N-[3-(4-tertbutylphenylthio)thien-2-yl]methyl urea] | 200 nM
CCOC(=O)CNC(=O)N(O)C(C)c1ccsc1 (centres unmarked) [Example 62] | 4200 nM
CNC(=O)N(O)C(C)c1ccc(F)cc1 (centres unmarked) [Example 110, N-Hydroxy-N-(1-(4-fluorophenyl)ethyl)-N'-methyl urea] | 2300 nM
NC(=O)N(O)Cc1sccc1Sc1ccc(O)cc1 [Example 140, N-hydroxy-N-[3-(4-hydroxyphenylthio)thien-2-yl]methyl urea] | 400 nM
NC(=O)N(O)Cc1sccc1Sc1ccccn1 [Example 145, N-hydroxy-N-[3-(2-pyridylthio)thien-2-yl]methyl urea] | 1500 nM
NC(=O)N(O)Cc1sccc1Sc1ccc(F)cc1 [Example 143, N-hydroxy-N-[3-(4-fluorophenylthio)thien-2-yl]methyl urea] | 300 nM
CC(C)(C)Sc1ccc(CN(O)C(N)=O)s1 [Example 148, N-hydroxy-N-[5-(tertbutylthio)thien-2-yl]methyl urea] | 300 nM
CNC(=O)N(O)Cc1ccc(-c2ccccc2)s1 [Example 54, N-hydroxy-N-(1-(5-phenylthien-2-yl)methyl)-N'-methyl urea] | 310 nM
CNC(=O)N(O)C(C)c1ccc(Cl)cc1 (centres unmarked) [Example 108, N-Hydroxy-N-(1-(4-chlorophenyl)ethyl)-N'-methyl urea] | 400 nM
COc1ccc(C(C)N(O)C(N)=O)cc1 (centres unmarked) [Example 116, N-Hydroxy-N-(1-(4-methoxyphenyl)ethyl) urea] | 4400 nM
CNC(=O)N(O)C(C)c1ccc(F)cc1F (centres unmarked) [Example 104, N-Hydroxy-N-(1-(2,4-difluorophenyl)ethyl)-N'-methylurea] | 3900 nM
C=CCN(CC=C)c1ccc(C(C)N(O)C(N)=O)cc1 (centres unmarked) [Example 121, N-Hydroxy-N-(1-(4-bis-allylaminophenyl)ethyl) urea] | 740 nM
CNC(=O)N(O)C(C)c1ccc(OC)cc1 (centres unmarked) [Example 117, N-Hydroxy-N-(1-(4-methoxyphenyl)ethyl)-N'-methyl urea] | 4430 nM
NC(=O)N(O)Cc1sccc1Sc1ccc(Br)cc1 [Example 141, N-hydroxy-N-[3-(4-bromophenylthio)thien-2-yl]methyl urea] | 200 nM
NC(=O)N(O)CCCc1ccsc1 [Example 69, N-hydroxy-N-(3-(1-thien-3-yl)propyl) urea] | 1500 nM
NC(=O)N(O)Cc1cccc(Oc2ccccc2)c1 [Example 125] | 400 nM
NC(=O)N(O)Cc1ccc(Br)s1 [Example 130, N-hydroxy-N-(5-bromothien-2-yl)methyl urea] | 900 nM
CC(c1ccc(Cc2ccccc2)s1)N(O)C(N)=O (centres unmarked) [Example 57, N-hydoxy-N-(1-(5-benzylthien-2-yl)ethyl) urea] | 420 nM
NC(=O)N(O)Cc1cc(Oc2ccccc2)cs1 [Example 157, N-hydroxy-N-[4-(phenoxy)thien-2-yl]methyl urea] | 500 nM
CC(c1ccc2ccccc2c1)N(O)C(=O)NO (centres unmarked) [Example 10, N,N'-dihydroxy-N-(1-(2-naphthyl)ethyl) urea] | 870 nM
CC(c1ccc(-c2ccccn2)s1)N(O)C(N)=O (centres unmarked) [Example 48, N-hydroxy-N-(1-(5-pyrid-2-yl)thien-2-yl)ethyl urea] | 1700 nM

Compound | IC50
CNC(=O)N(O)Cc1cccc(Oc2ccccc2)c1 [Example 126] | 800 nM
NC(=O)N(O)Cc1ccc(Sc2ccccc2)s1 [Example 135, N-hydroxy-N-[5-(phenylthio)thien-2-yl]methyl urea] | 200 nM
NC(=O)N(O)Cc1sccc1Sc1ccc(Cl)cc1 [Example 142, N-hydroxy-N-[3-(4-chlorophenylthio)thien-2-yl]methyl urea] | 300 nM
CC(C)(C)Sc1ccsc1CN(O)C(N)=O [Example 147, N-hydroxy-N-[3-(tertbutylthio)thien-2-yl]methyl urea] | 3700 nM
NC(=O)N(O)Cc1cc(Oc2ccc(Cl)cc2)cs1 [Example 158, N-hydroxy-N-[4-(4-chlorophenoxy)thien-2-yl]methyl urea] | 400 nM
CC(c1cc(Br)cs1)N(O)C(N)=O (centres unmarked) [Example 132, N-hydroxy-N-[1-(4-bromothien-2-yl)ethyl]urea] | 900 nM
CCCCOc1ccc(C(C)N(O)C(N)=O)cc1 (centres unmarked) [Example 11, N-hydroxy-N-(1-(4-butoxyphenyl)ethyl) urea] | 1100 nM
NC(=O)N(O)Cc1csc(Sc2ccccc2)c1 [Example 137, N-hydroxy-N-[5-(phenylthio)thien-3-yl]methyl urea] | 400 nM
Cc1cc(C(C)N(O)C(=O)NCCO)c(C)s1 (centres unmarked) [Example 60, N-hydroxy-N-(1-(2,5-dimethylthien-3-yl)ethyl)-N'-(2-hydroxyethyl) urea] | 3500 nM
CNC(=O)N(O)C(C)c1ccc(C)c(Br)c1 (centres unmarked) [Example 115, N-Hydroxy-N-(1-(3-bromo-4-methylphenyl)ethyl)-N'-methyl urea] | 600 nM
CC(C)(C)Sc1ccc(/C=C/CN(O)C(N)=O)s1 [Example 154, N-hydroxy-N-3-[5-(tertbutylthio)thien-2-yl]propenyl urea] | 200 nM
CNC(=O)N(O)C(C)c1ccc(OCc2ccccc2)cc1 (centres unmarked) [Example 2, N-hydroxy-N-1-(4-phenylmethoxyphenyl) ethyl N'-methyl urea] | 370 nM
Cc1cc(C(C)N(O)C(N)=O)ccc1Cl (centres unmarked) [Example 123, N-Hydroxy-N-(1-(4-chloro-3-methylphenyl)ethyl) urea] | 500 nM
CCCCOc1ccc(C(C)N(O)C(N)=O)cc1 (centres unmarked) [Example 119, N-Hydroxy-N-(1-(4-butoxyphenyl)ethyl) urea] | 530 nM
Cc1ccsc1C(C)N(O)C(N)=O (centres unmarked) [Example 46, N-hydroxy-N-1-(3-methylthien-2-yl)ethyl urea] | 2100 nM
NC(=O)N(O)Cc1ccc(-c2ccccc2)s1 [Example 53, N-hydroxy-N-(1-(5-phenylthien-2-yl)methyl) urea] | 200 nM
CNC(=O)N(O)C(C)c1ccc(F)c(Br)c1 (centres unmarked) [Example 114, N-Hydroxy-N-(1-(3-bromo-4-fluorophenyl)ethyl)-N'-methyl urea] | 900 nM
Cc1ccc(CC(C)N(O)C(N)=O)s1 (centres unmarked) [Example 72, N-Hydroxy-N-(2-(1-(5-methylthien-2-yl))propyl) urea] | 800 nM
CC(c1ccc(OCc2ccccc2)cc1)N(O)C(=O)N(C)C (centres unmarked) [Example 3] | 680 nM
NC(=O)N(O)Cc1cc(Br)cs1 [Example 128, N-hydroxy-N-(4-bromothien-2-yl)methyl urea] | 2500 nM
NC(=O)N(O)Cc1sccc1Br [Example 127, N-hydroxy-N-(3-bromothien-2-yl)methyl urea] | 1200 nM
NC(=O)N(O)Cc1sccc1SCc1ccco1 [Example 146, N-hydroxy-N-[3-(2-furfurylmethylthio)thien-2-yl]methyl urea] | 700 nM
CC(c1ccc(SC(C)(C)C)s1)N(O)C(N)=O (centres unmarked) [Example 149, N-hydroxy-N-[1-(5-{terbutylthio}thien-2-yl)ethyl]urea] | 800 nM
CC(c1ccc(Sc2ccccc2)s1)N(O)C(N)=O (centres unmarked) [Example 139, N-hydroxy-N-[1-(5-(phenylthio)-thien-2-yl)ethyl]urea] | 400 nM
CC(c1ccc(F)c(Br)c1)N(O)C(N)=O (centres unmarked) [Example 122, N-Hydroxy-N-(1-(3-bromo-4-fluorophenyl)ethyl) urea] | 800 nM
CNC(=O)N(O)Cc1ccc(OCc2ccccc2)cc1 [Example 6, N-hydroxy-N-(4-phenylmethoxyphenylmethyl)-N'-methyl-urea] | 540 nM
